Results from US20240308985A1 (Psy Therapeutics, Inc., priority 2021, published 2024).
Like-named read-outs stand apart in the source and are kept apart here.

Biological target: Monoacylglycerol Lipase (MAGL) (Homo sapiens (Human), UniProt Q99685)
Test: MAGL inhibition potency (IC50) assay with 4NPA substrate
Assay type: biochemical
From the text: The potency of certain compounds for inhibiting MAGL were obtained using the following assays. The monoacylglycerol lipase inhibitor screening assay kit from Cayman Chemical was used to measure the MAGL potency for the compounds in Table 6 and Table 7. Cayman's Monoacylglycerol Lipase Inhibitor Screening Assay provides a method for screening human MAGL inhibitors. MAGL hydrolyzes 4-nitrophenylacetate resulting in a yellow product, 4-nitrophenol, with an absorbance of 405-412 nm. MAGL Inhibition was measured by the following assay. Monoacylglycerol Lipase (MAGL) inhibition was measured using recombinant MAGL enzyme (aa 2-303 RBC, internal preparation) and the substrate 4-Nitrophenyl acetate (4NPA) (Sigma-Aldrich, N8130). Hydrolysis of the substrate in the presence of the enzyme was measured by absorbance at 405 nm. 10 μL of assay buffer (10 mM Tris pH 7.5, 1 mM EDTA, 0.9% DMSO) was added to a black 384-well non-binding plate with clear bottom (Greiner, 781906) for each reaction. […] DMSO control wells were included for reference. A 10.8 nM (1.8×) MAGL mix in assay buffer was prepared, with 25 μL added to each reaction well, for a final assay concentration of 6 nM. No enzyme wells received 25 μL of buffer. Plate was incubated at room temperature for 30 minutes. 35 mM solution of 4NPA in methanol was prepared daily. A 4.5×4NPA substrate solution was prepared in assay buffer and 10 μL was added to each reaction well, for a final assay concentration of 0.25 mM. Plate was spun for 1 minute at 1000 rpm before measuring absorbance using a CLARIOstar plate reader (BMG Labtech). A kinetic reading at 405 nm was done every minute for 30 minutes. Data was analyzed using the linear slope of the reaction progress curve and the average of the no-enzyme wells (background) was subtracted from the data. The background-subtracted slope data was converted to % activity using the average of wells with enzyme and DMSO vehicle. IC50s were calculated using GraphPad software (Sigmoidal dose response, variable slope equation). […] Table 8 provides potency measurements of MAGL inhibition measured using the Potency Assay of Example 22 above, with the following modifications described in Table C. [table]

[1] = Method 14: Reaction Biology MAGL enzyme, 6 nM, read-out: Potency (MAGL inhibition)
[2] = Method 2: Cayman Chemical MAGL enzyme, 10 nM, read-out: Potency (MAGL inhibition)
[3] = Method 6: Reaction Biology MAGL enzyme, 6 nM, read-out: MAGL Potency (Detection Method)
[4] = Method 4: Cayman Chemical MAGL enzyme, 15 nM, read-out: MAGL Potency (Detection Method)

Sequence of Monoacylglycerol Lipase (MAGL) (Q99685 2-303): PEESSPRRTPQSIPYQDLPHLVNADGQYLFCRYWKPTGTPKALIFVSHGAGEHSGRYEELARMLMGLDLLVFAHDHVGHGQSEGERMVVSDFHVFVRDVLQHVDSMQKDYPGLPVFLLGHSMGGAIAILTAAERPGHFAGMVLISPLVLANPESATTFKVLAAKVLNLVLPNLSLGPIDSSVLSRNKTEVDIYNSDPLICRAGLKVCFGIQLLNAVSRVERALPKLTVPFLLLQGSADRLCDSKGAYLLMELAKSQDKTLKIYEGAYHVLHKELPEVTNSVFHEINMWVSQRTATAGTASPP

For `Cc1cc(C2CC3(C2)CN(C(=O)c2cc4c(cc2F)CCO4)C3)n(-c2ccccc2C)n1` [Compound 368], the IC50 [1] was > 10000 nM.

`Cc1cc(C2CC3(C2)CN(C(=O)c2ccc[nH]2)C3)n(-c2ccccc2C)n1` [Compound 183] was tested, and the IC50 [2] was > 10000 nM.

With `Cc1cc(F)c(C(=O)N2CC3(CC(n4cc(C)c(-c5ccccc5C)n4)C3)C2)cc1O` [Compound 443] the IC50 [3] was 1000 to 5100 nM.

For `Cc1cc(C2CC3(C2)CN(C(=O)c2cc(O)c(F)cc2F)C3)n(-c2ccccc2C)n1` [Compound 126, (2,4-difluoro-5-hydroxyphenyl)(6-(3-methyl-1-(o-tolyl)-1H-pyrazol-5-yl)-2-azaspiro[3.3]heptan-2-yl)methanone], the IC50 (Methods 1, 2, 3, read-out: MAGL Potency (Detection Method)) was < 50 nM.

In the case of `CCOc1cc(F)ccc1C(=O)N1CC2(CC(n3nc(-c4cc(F)ccc4C)cc3C)C2)C1` [Compound 463, (2-ethoxy-4-fluorophenyl){6-[3-(5-fluoro-2-tolyl)-5-methyl-1-pyrazolyl]-2-aza-2-spiro[3.3]heptyl}methanone], the IC50 (Method 11: Reaction Biology MAGL enzyme, 25 nM (name: Conc 20), read-out: MAGL Potency (Detection Method)) is reported as 500 to 1000 nM.

`Cc1cnn(C2CC3(C2)CN(C(=O)c2ccc(F)cc2OC2CC2)C3)c1-c1ccccc1C(F)(F)F` [Compound 420, (2-cyclopropoxy-4-fluorophenyl)(6-{4-methyl-5-[o-(trifluoromethyl)phenyl]-1-pyrazolyl}-2-aza-2-spiro[3.3]heptyl)methanone] gave an IC50 [3] of 1000 to 5100 nM.

`Cc1cc(C2CC3(C2)CN(C(=O)c2ccc(F)c(O)c2)C3)n(-c2ccccc2C)n1` [Compound 141, (4-fluoro-3-hydroxyphenyl)(6-(3-methyl-1-(o-tolyl)-1H-pyrazol-5-yl)-2-azaspiro[3.3]heptan-2-yl)methanone] gave an IC50 (Method 1: Reaction Biology MAGL enzyme, 6 nM, read-out: MAGL Potency (Detection Method)) of 50 to 150 nM and an IC50 (Method 2: Cayman Chemical MAGL enzyme, 10 nM, read-out: MAGL Potency (Detection Method)) of 150 to 500 nM.

Compound `Cc1ccccc1N(C)C(=O)C1CC2(C1)CN(C(=O)c1cc(O)ccc1F)C2` [Compound 185, 2-(2-Fluoro-5-hydroxybenzoyl)-N-Methyl-N-(o-tolyl)-2-azaspiro [3.3]heptane-6-carboxamide] has an IC50 (Methods 2, 3, read-out: MAGL Potency (Detection Method)) of 50 to 150 nM.

`CCOc1cc(F)ccc1C(=O)N1CC2(CC(C(=O)N(CC)c3ccccc3C)C2)C1` [Compound 203, N-ethyl-N-o-tolyl-2-(2-ethoxy-4-fluorobenzoyl)-2-aza-6-spiro[3.3]heptanecarboxamide] showed an IC50 [4] of 150 to 500 nM.

In the case of `Cc1cc(C2CC3(C2)CN([C@@H]2CCOc4ccccc42)C3)n(-c2ccccc2C)n1` [Compound 153], the IC50 [2] is reported as > 10000 nM.

With `O=C(c1cc(O)ccc1F)N1CC2(CC(C(=O)N3CCC4(CCCO4)C3)C2)C1` (stereo not drawn) [Compound 400] the IC50 [1] was > 10000 nM.

`Cc1cnn(C2CC3(C2)CN(C(=O)c2cc(O)ccc2F)C3)c1-c1ccccc1F` [Compound 408, (2-fluoro-5-hydroxyphenyl){6-[5-(o-fluorophenyl)-4-methyl-1-pyrazolyl]-2-aza-2-spiro[3.3]heptyl}methanone] gave an IC50 [3] of 50 to 150 nM.

In the case of `Cc1cc(C2CC3(C2)CN(C(=O)c2cccc4c2CCO4)C3)n(-c2ccccc2C)n1` [Compound 403], the IC50 [1] is reported as > 10000 nM.

In the case of `CCOc1cc(F)ccc1C(=O)N1CC2(CC(C(=O)N(C)c3ccccc3C(C)C)C2)C1` [Compound 205, N-o-cumenyl-N-methyl-2-(2-ethoxy-4-fluorobenzoyl)-2-aza-6-spiro[3.3]heptanccarboxamide], the IC50 [4] is reported as 500 to 1000 nM.

Work on `Cc1cnn(C2CC3(C2)CN(C(=O)c2ccc(F)cc2OC2CC2)C3)c1-c1ccccc1F` [Compound 452, (2-cyclopropoxy-4-fluorophenyl){6-[5-(o-fluorophenyl)-4-methyl-1-pyrazolyl]-2-aza-2-spiro[3.3]beptyl}methanone] yielded an IC50 [3] of 1000 to 5100 nM.

`O=C(c1ccc(F)cc1OC1CC1)N1CC2(CC(n3nc(C(F)(F)F)cc3-c3ccccc3C(F)(F)F)C2)C1` [Compound 424, (2-cyclopropoxy-4-fluorophenyl)(6-(3-(trifluoromethyl)-5-(2-(trifluoromethyl)phenyl)-1H-pyrazol-1-yl)-2-azaspiro[3.3]heptan-2-yl)methanone] was tested, and the IC50 (Method 6: Reaction Biology MAGL enzyme, 6 nM, read-out: Potency (MAGL inhibition)) was > 10000 nM.

For `Cc1cc(C2CC3(C2)CN(Cc2cc(O)ccc2F)C3)n(-c2ccccc2C)n1` [Compound 150], the IC50 (read-out: Potency (MAGL inhibition)) was > 10000 nM.
